According to ChEMBL document CHEMBL6134825, “Mechanisms and therapeutic strategies for NLRP3 degradation via post-translational modifications in ubiquitin-proteasome and autophagy lysosomal pathway” (Eur J Med Chem, 2025):

Experiments:
[1] = Toxicity in rat assessed as lethal dose; settings: in vivo
[2] = Oral bioavailability in Sprague-Dawley rat at 5 mg/kg by LC-MS/MA analysis; format: ADME, organism-based; settings: in vivo
[3] = Oral bioavailability in Sprague-Dawley rat at 20 mg/kg by LC-MS/MS analysis; format: ADME, organism-based; settings: in vivo
[4] = AUC(0 to t) in Sprague-Dawley rat at 20 mg/kg, po measured up to 24 hrs by LC-MS/MS analysis; format: ADME, organism-based; settings: in vivo
[5] = AUC(0 to t) in ICR mouse plasma at 5 mg/kg, po measured for 60 mins by LC-MS/MS analysis; format: ADME, organism-based
[6] = Oral bioavailability in ICR mouse at 5 mg/kg; format: ADME, organism-based; settings: in vivo
[7] = Oral bioavailability in Beagle dog at 3.6 mg/kgm measured for 24 hrs by LC-MS/MS analysis; format: ADME, organism-based, Canis lupus familiaris; settings: in vivo, dose 3.6 mg/kg
[8] = AUC(0 to t) in Beagle dog at 3.6 mg/kg, po measured for 24 hrs by LC-MS/MS analysis; format: ADME, organism-based, Canis lupus familiaris; settings: in vivo
[9] = Microsomal metabolic stability in Beagle dog liver microsomes assessed as half life […] by LC-MS/MS analysis; format: ADME, Canis lupus familiaris, Microsome
[10] = AUC(0 to t) in Sprague-Dawley rat at 300 mg/kg, po measured up to 24 hrs by LC-MS/MS analysis; format: ADME, organism-based; settings: in vivo
[11] = Oral bioavailability in human at 2 microg/kg measured for 60 mins by LC-MS/MS analysis; settings: in vivo, 0.002 mg/kg
[12] = Metabolic stability in human liver microsome assessed as half life; settings: liver microsomes
[13] = AUC(0 to t) in ICR mouse plasma at 2 microg/kg, po measured for 60 mins by LC-MS/MS analysis; settings: 0.002 mg/kg
[14] = Acute toxicity in po dosed ICR mouse assessed as lethal dose; format: organism-based; settings: in vivo
[15] = Metabolic stability in rat liver microsomes assessed as half life measured for 60 mins by LC-MS/MS analysis; format: ADME, Microsome
[16] = Toxicity in ip dosed rat assessed as lethal dose; format: organism-based; settings: in vivo
[17] = Toxicity in iv dosed rat assessed as lethal dose; format: organism-based; settings: in vivo
[18] = AUC(0 to t) in Sprague-Dawley rat at 5 mg/kg, po measured up to 24 hrs by LC-MS/MS analysis; format: ADME, organism-based; settings: in vivo

O=c1c(O)c(-c2ccc(O)cc2)oc2cc(O)cc(O)c12 [KAEMPFEROL]
LD50 [1]: 3810 mg/kg
bioavailability [2]: 7%
bioavailability [3]: 2%
AUC(0-t) at 24 h [4]: 234 µg·h/mL

O=C(Nc1c2c(cc3c1CCC3)CCC2)NS(=O)(=O)c1ccc(OCCOCCOCCOCCN2C(=O)/C(=C\c3cc(Br)c(O)c(Br)c3)c3cc(I)ccc32)cc1
AUC(0-t) at 1 h [5]: 551 µg·h/mL
bioavailability [6]: 19%

C[C@@H]1C(=O)O[C@H]2[C@@H](O)C34[C@H]5C[C@@H](C(C)(C)C)C36[C@@H](OC(=O)[C@@H]6O)O[C@@]4(C(=O)O5)[C@@]12O (stereo partly drawn)
bioavailability [7]: 17%
AUC(0-t) at 24 h [8]: 356 µg·h/mL
half-life [9]: 1 h

O=C1c2cccc(O)c2C(=O)c2c(O)cc(CO)cc21 [ALOE-EMODIN]
AUC(0-t) at 24 h [10]: 42.8 µg·h/mL

Cc1cccc([C@H](C)c2cnc[nH]2)c1C [DEXMEDETOMIDINE]
bioavailability at 1 h [11]: 15.6%
half-life [12]: 2 h
AUC(0-t) at 1 h [13]: 0.45 µg·h/mL

COc1cc(/C=C/C(=O)O)ccc1O [FERULATE]
LD50 [14]: 3200 mg/kg

Cc1cnc(-c2ccccc2C(C)C)nc1NCc1ccc(-n2ccnn2)cc1
half-life [15]: 0.2 h

O=c1c(-c2ccc(O)cc2)coc2c([C@@H]3O[C@H](CO)[C@@H](O)[C@H](O)[C@H]3O)c(O)ccc12 [PUERARIN]
LD50 [16]: 1410 mg/kg
LD50 [17]: 634 mg/kg
AUC(0-t) at 24 h [18]: 109 µg·h/mL
